Patent publication US11179465B2, “Topical compositions comprising a corticosteroid” (PRIMUS PHARMACEUTICALS, INC., priority 2014, dated 2021)

Tests used:
[1] = Plasma concentrations of clobetasol propionate (PK blood samples); assay type: in vivo, human
Experimental: These investigational products were applied twice daily to all affected areas on the body excluding face, scalp, groin, axillae and other intertriginous areas. The subjects had 20 to 50% BSA treated to achieve maximal use exposure. The subjects were visited Screening, Baseline (Day 1), Day 8, Day 15 and Day 43 (if needed to confirm recovery). Clinical determinations of disease severity was conducted using the Investigator Global Assessment (IGA) for overall severity at each visit. Subjects were tested for HPA axis function using the ACTH stimulation test (i.e., a cosyntropin i.v. or i.m. injection) at the Screening Visit (at least 14 days and no more than 28 days prior to Baseline) and at Day 15. In addition, blood samples for serum dehydroepiandrosterone sulfate (DHEAS) was taken at Screening, on Day 8 and at the time of the ACTH stimulation test on Day 15 (pre-test sample) as a secondary measure of HPA axis suppression. At the time of the screening ACTH stimulation test, a PK blood sample was taken to obtain a baseline value (PK screening sample). On Day 15, subjects were applied the last dose of study product at the clinic up to 60 minutes after a pre-treatment PK blood sample was taken (0 hour-Day 15). PK blood samples was then collected at 1, 3 and 6 hours (±5 minutes) after application of the study product.
Subjects had applied study product to all affected areas except the face, scalp, groin, axillae and other intertriginous areas. The target dose was at least 5 to 7 g per day (1 teaspoon of cream, twice daily, applied at approximately 1 mg/cm2 on 20% BSA—3000 cm2). All baseline affected areas and newly affected areas have been treated until the end of the study even if cleared. The investigator had marked the affected areas (in the source document), updated the marking at each visit, and reminded the subjects where study product was to be applied at each visit using the marking. Study product have been applied directly onto affected areas and rubbed in gently and completely. Study product have been applied after bathing, if applicable.

HPA axis = conditions: topical; cited from earlier work
[2] = Average of Post-Treatment, subjects With HPA Axis Suppression
[3] = Average of Post-Treatment, subjects Without HPA Axis Suppression
[4] = Day 15: 1 Hour, subjects With HPA Axis Suppression
[5] = Day 15: 1 Hour, subjects Without HPA Axis Suppression
[6] = Day 15: 3 Hours, subjects With HPA Axis Suppression
[7] = Day 15: 3 Hours, subjects Without HPA Axis Suppression
[8] = Day 15: 6 Hours, subjects With HPA Axis Suppression
[9] = Day 15: 6 Hours, subjects Without HPA Axis Suppression
[10] = Day 15: Pre-Treatment (0 hour), subjects With HPA Axis Suppression
[11] = Day 15: Pre-Treatment (0 hour), subjects Without HPA Axis Suppression
[12] = Screening, subjects With HPA Axis Suppression (both creams pooled)
[13] = Screening, subjects Without HPA Axis Suppression (both creams pooled)

## CCC(=O)O[C@]1(C(=O)CCl)[C@@H](C)C[C@H]2[C@@H]3CCC4=CC(=O)C=C[C@]4(C)[C@@]3(F)[C@@H](O)C[C@@]21C [Clobetasol Propionate, [17-(2′-chloroacetyl)-9-fluoro-11-hydroxy-10,13,16-trimethyl-3-oxo-6,7,8,11,12,14,15,16-octahydrocyclopenta[a]phenanthren-17-yl] propanoate]
[1]; [2]
  Plasma Concentration of Clobetasol Propionate, Mean ± SD: 0.217123 ± 0.1537979 ng/mL
  Plasma Concentration of Clobetasol Propionate, Median: 0.185565 ng/mL
[1]; [3]
  Plasma Concentration of Clobetasol Propionate, Mean ± SD: 0.071244 ± 0.1060424 ng/mL
  Plasma Concentration of Clobetasol Propionate, Median: 0.03174 ng/mL
[1]; [4]
  Plasma Concentration of Clobetasol Propionate, Mean ± SD: 0.210873 ± 0.1962904 ng/mL
  Plasma Concentration of Clobetasol Propionate, Median: 0.15588 ng/mL
[1]; [5]
  Plasma Concentration of Clobetasol Propionate, Mean ± SD: 0.081012 ± 0.1512306 ng/mL
  Plasma Concentration of Clobetasol Propionate, Median: 0.03173 ng/mL
[1]; [6]
  Plasma Concentration of Clobetasol Propionate, Mean ± SD: 0.200668 ± 0.1260445 ng/mL
  Plasma Concentration of Clobetasol Propionate, Median: 0.19545 ng/mL
[1]; [7]
  Plasma Concentration of Clobetasol Propionate, Mean ± SD: 0.067637 ± 0.1039073 ng/mL
  Plasma Concentration of Clobetasol Propionate, Median: 0.033185 ng/mL
[1]; [8]
  Plasma Concentration of Clobetasol Propionate, Mean ± SD: 0.205386 ± 0.1474279 ng/mL
  Plasma Concentration of Clobetasol Propionate, Median: 0.17805 ng/mL
[1]; [9]
  Plasma Concentration of Clobetasol Propionate, Mean ± SD: 0.065451 ± 0.0915422 ng/mL
  Plasma Concentration of Clobetasol Propionate, Median: 0.03626 ng/mL
[1]; [10]
  Plasma Concentration of Clobetasol Propionate, Mean ± SD: 0.195691 ± 0.1507514 ng/mL
  Plasma Concentration of Clobetasol Propionate, Median: 0.13649 ng/mL
[1]; [11]
  Plasma Concentration of Clobetasol Propionate, Mean ± SD: 0.055406 ± 0.1003403 ng/mL
  Plasma Concentration of Clobetasol Propionate, Median: 0.02623 ng/mL
[1]; [12]
  Plasma Concentration of Clobetasol Propionate, Mean ± SD: 0 ± 0 ng/mL
  Plasma Concentration of Clobetasol Propionate, Median: 0 ng/mL
[1]; [13]
  Plasma Concentration of Clobetasol Propionate, Mean ± SD: 0.001282 ± 0.0075844 ng/mL
  Plasma Concentration of Clobetasol Propionate, Median: 0 ng/mL
[1]; Table 8, both creams pooled
  Mean plasma clobetasol levels, subjects with HPA axis suppression relative to those without: more than 3 times
HPA axis
  Lowest dose at which the HPA axis is suppressed: 2 grams per day
